Test results from patent publication US6239146A, “Neurotrophic difluoroamide agents” (Bristol-Myers Squibb Company, priority 2000, dated 2001).

Biological target: FKBP12 (Homo sapiens, UniProt P62942)
Test: FKBP12 Rotamase Inhibition Assay
Assay type: biochemical
Details: for Ki: 4° C., chymotrypsin-coupled, succinyl-Ala-Leu-Pro-Phe-p-nitroanilide substrate, read-out: Ki (apparent Ki for inhibition of rotamase activity); for inhibition at 10 µM: read-out: Percent Inhibition at 10 μM (rotamase)

FKBP12, sequence (P62942 whole entry, species assumed): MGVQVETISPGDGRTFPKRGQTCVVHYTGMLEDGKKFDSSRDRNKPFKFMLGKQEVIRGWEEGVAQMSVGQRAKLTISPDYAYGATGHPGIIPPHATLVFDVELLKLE

**Q.** `COc1cc(C(F)(F)C(=O)N2CCC[C@H]2C(=O)OCCCc2ccccc2)cc(OC)c1OC` [Example 1] was tested. Which Ki did it give?
**A.** 1300 nM

**Q.** And the inhibition at 10 µM?
**A.** 97%

**Q.** Which Ki does the source give for `COc1cc(C(F)(F)C(=O)N2CCC[C@H]2C(=O)OCCCc2cccnc2)cc(OC)c1OC` [Example 2] here?
**A.** 877 nM

**Q.** For `COc1cc(C(F)(F)C(=O)N2CCC[C@H]2C(=O)OC(CCCc2ccccc2)CCCc2cccnc2)cc(OC)c1OC` (stereo partly shown) [Example 3], which Ki is on record?
**A.** 104 nM

**Q.** What about the inhibition at 10 µM of the same molecule?
**A.** 97%

**Q.** How did the inhibition at 10 µM turn out when `COc1cc(C(F)(F)C(=O)N2CCCC[C@H]2C(=O)OC(CCCc2ccccc2)CCCc2cccnc2)cc(OC)c1OC` (stereo partly shown) [Example 4] was run?
**A.** 98%

**Q.** How did the inhibition at 10 µM turn out when `COc1cc(C(F)(F)C(=O)N2CCC[C@H]2C(=O)OC(C)(C)CCc2ccccc2)cc(OC)c1OC` [Example 5] was run?
**A.** 70%

**Q.** How did the Ki turn out when `COc1cc(C(F)(F)C(=O)N2CCC[C@H]2C(=O)OC(CCc2ccccc2)c2ccccc2)cc(OC)c1OC` (stereo partly shown) [Example 6] was run?
**A.** 83 nM

**Q.** And the inhibition at 10 µM?
**A.** 100%

**Q.** How did the inhibition at 10 µM turn out when `COc1cc(C(F)(F)C(=O)N2CCCC[C@H]2C(=O)OC(CCc2ccccc2)c2ccccc2)cc(OC)c1OC` (stereo partly shown) [Example 7] was run?
**A.** 94%

**Q.** Which inhibition at 10 µM does the source give for `COc1cc(CCCOC(=O)[C@@H]2CCCN2C(=O)C(F)(F)c2cc(OC)c(OC)c(OC)c2)cc(OC)c1OC` [Example 8] here?
**A.** 38%

**Q.** Which Ki does the source give for `COc1cc(CCCOC(=O)[C@@H]2CCCCN2C(=O)C(F)(F)c2cc(OC)c(OC)c(OC)c2)cc(OC)c1OC` [Example 9] here?
**A.** 109 nM

**Q.** What about the inhibition at 10 µM of the same molecule?
**A.** 99%
